Results from PMC8079033, “Design, synthesis, anticancer evaluation, and molecular modelling studies of novel tolmetin derivatives as potential VEGFR-2 inhibitors and apoptosis inducers” (Journal of Enzyme Inhibition and Medicinal Chemistry, 2021).

Key:
[1] = test system: SK-MEL-5; experiment: NCI 60-cell line one-dose antiproliferative screen (SRB); type: cell-based; conditions: Homo sapiens, read-out: growth inhibition % (GI%)
Experimental: (§1) Anticancer activity screening of the newly synthesised compounds was measured in vitro utilising 60 different human tumour cell lines provided by US National Cancer Institute according to previously reported standard procedure[41–43] as follows: Cells are inoculated into 96-well microtiter plates in 100 ml. After cell inoculation, the microtiter plates are incubated at 37 °C, 5% CO2, 95% air, and 100% relative humidity for 24 h prior to addition of experimental compounds. After 24 h, two plates of each cell line are fixed in situ with TCA, to represent a measurement of the cell population for each cell line at the time of compound addition (Tz). Experimental compounds are solubilised in dimethyl sulfoxide at 400-fold the desired final maximum test concentration and stored frozen prior to use. At the time of compound addition, an aliquot of frozen concentrate is thawed and diluted to twice the desired final maximum test concentration with a complete medium containing […] gentamicin. Aliquots of […] of the compounds dilutions are added to the appropriate microtiter wells already containing 100 ml of medium, resulting in the required final compound concentration. Following compound addition, the plates are incubated for an additional 48 h at 37 °C, 5% CO2, 95% air, and 100% relative humidity. For adherent cells, the assay is terminated by the addition of cold trichloroacetic acid (TCA). Cells are fixed in situ by the gentle addition of 50 ml of cold 50% (w/v) TCA (final concentration, 10% TCA) and incubated for […] at 4 °C. The supernatant is discarded, and the plates are washed five times with tap water and air-dried. Sulforhodamine B (SRB) solution (100 ml) at 0.4% (w/v) in 1% acetic acid is added to each well, and plates are incubated for 10 min at room temperature. After staining, the unbound dye is removed by washing five times with 1% acetic acid and the plates are air-dried. The bound stain is subsequently solubilised with a 10 mM trizma base, and the absorbance is read on an automated plate reader at a wavelength of 515 nm. For suspension cells, the methodology is the same except that the assay is terminated by fixing settled cells at the bottom of the wells by gently adding 50 ml of 80% TCA (final concentration, 16% TCA). Using the absorbance measurements [time zero, (Tz), control growth, (C), and test growth in the presence of compound (Ti)], the percentage growth is calculated for each compound. The One-dose data are reported as a mean graph of the percent growth of treated cells. The reported number is growth relative to the no-compound control, and relative to the time zero number of cells. This allows the detection of both growth inhibition and lethality.
(§2) Fifteen newly synthesised compounds were tested for their in vitro antiproliferative activity by the National Cancer Institute (NCI), Maryland, USA[50], under the Developmental Therapeutic Program (DTP)[41]^,[43]^,[51]^,[52]. The tested compounds were evaluated at a concentration of 10 µM on a panel of 60 tumour cell lines representing leukaemia and non-small cell lung, colon, CNS, melanoma, ovarian, renal, prostate, and breast cancers. The antiproliferative activity was presented by the NCI as percent growth of the treated cells and is presented in Table 1 as growth inhibition percentage (GI%) achieved by the tested compounds.

[2] = test system: NCI-H522; experiment: as above; type: cell-based; conditions: Homo sapiens, read-out: growth inhibition % (GI%)
Experimental: as §1, §2

[3] = test system: SF-268; experiment: as above; type: cell-based; conditions: Homo sapiens, read-out: growth inhibition % (GI%)
Experimental: as §1, §2

[4] = test system: SNB-75; experiment: as above; type: cell-based; conditions: Homo sapiens, read-out: growth inhibition % (GI%)
Experimental: as §1, §2

[5] = test system: SF-295; experiment: as above; type: cell-based; conditions: Homo sapiens, read-out: growth inhibition % (GI%)
Experimental: as §1, §2

[6] = test system: CAKI-1; experiment: as above; type: cell-based; conditions: Homo sapiens, read-out: growth inhibition % (GI%)
Experimental: as §1, §2

[7] = test system: ACHN; experiment: as above; type: cell-based; conditions: Homo sapiens, read-out: growth inhibition % (GI%)
Experimental: as §1, §2

[8] = test system: HOP-92; experiment: as above; type: cell-based; conditions: Homo sapiens, read-out: growth inhibition % (GI%)
Experimental: as §1, §2

[9] = test system: SNB-19; experiment: as above; type: cell-based; conditions: Homo sapiens, read-out: growth inhibition % (GI%)
Experimental: as §1, §2

[10] = test system: OVCAR-5; experiment: as above; type: cell-based; conditions: Homo sapiens, read-out: growth inhibition % (GI%)
Experimental: as §1, §2

[11] = test system: MCF7; experiment: as above; type: cell-based; conditions: Homo sapiens, read-out: growth inhibition % (GI%)
Experimental: as §1, §2

[12] = test system: T-47D; experiment: as above; type: cell-based; conditions: Homo sapiens, T47D, read-out: growth inhibition % (GI%)
Experimental: as §1, §2

[13] = test system: SN 12 C; experiment: as above; type: cell-based; conditions: Homo sapiens, SN12C, read-out: growth inhibition % (GI%)
Experimental: as §1, §2

[14] = test system: PC-3; experiment: as above; type: cell-based; conditions: Homo sapiens, read-out: growth inhibition % (GI%)
Experimental: as §1, §2

[15] = test system: UO-31; experiment: as above; type: cell-based; conditions: Homo sapiens, read-out: growth inhibition % (GI%)
Experimental: as §1, §2

[16] = test system: OVCAR-8; experiment: as above; type: cell-based; conditions: Homo sapiens, read-out: growth inhibition % (GI%)
Experimental: as §1, §2

[17] = test system: SF-539; experiment: as above; type: cell-based; conditions: Homo sapiens, read-out: growth inhibition % (GI%)
Experimental: as §1, §2

[18] = test system: HOP-62; experiment: as above; type: cell-based; conditions: Homo sapiens, read-out: growth inhibition % (GI%)
Experimental: as §1, §2

[19] = test system: K-562; experiment: as above; type: cell-based; conditions: Homo sapiens, K562, read-out: growth inhibition % (GI%)
Experimental: as §1, §2

[20] = test system: NCI-H226; experiment: as above; type: cell-based; conditions: Homo sapiens, read-out: growth inhibition % (GI%)
Experimental: as §1, §2

[21] = test system: LOX IMVI; experiment: as above; type: cell-based; conditions: Homo sapiens, read-out: growth inhibition % (GI%)
Experimental: as §1, §2

[22] = test system: SW-620; experiment: as above; type: cell-based; conditions: Homo sapiens, read-out: growth inhibition % (GI%)
Experimental: as §1, §2

[23] = test system: UACC-62; experiment: as above; type: cell-based; conditions: Homo sapiens, read-out: growth inhibition % (GI%)
Experimental: as §1, §2

[24] = test system: IGROV1; experiment: as above; type: cell-based; conditions: Homo sapiens, IGROV-1, read-out: growth inhibition % (GI%)
Experimental: as §1, §2

[25] = test system: MDA-MB-435; experiment: as above; type: cell-based; conditions: Homo sapiens, read-out: growth inhibition % (GI%)
Experimental: as §1, §2

[26] = test system: NCI/ADR-RES; experiment: as above; type: cell-based; conditions: Homo sapiens, read-out: growth inhibition % (GI%)
Experimental: as §1, §2

[27] = test system: MDA-MB-231/ATCC; experiment: as above; type: cell-based; conditions: Homo sapiens, read-out: growth inhibition % (GI%)
Experimental: as §1, §2

[28] = test system: MDA-MB-468; experiment: as above; type: cell-based; conditions: Homo sapiens, read-out: growth inhibition % (GI%)
Experimental: as §1, §2

[29] = test system: U251; experiment: as above; type: cell-based; conditions: Homo sapiens, U-251, read-out: growth inhibition % (GI%)
Experimental: as §1, §2

[30] = test system: RXF 393; experiment: NCI 60-cell line one-dose antiproliferative screen (SRB); type: cell-based; conditions: Homo sapiens, read-out: growth inhibition % (GI%)
Experimental: as §1, §2

[31] = test system: NCI-H23; experiment: as above; type: cell-based; conditions: Homo sapiens, read-out: growth inhibition % (GI%)
Experimental: as §1, §2

[32] = test system: HCT-15; experiment: as above; type: cell-based; conditions: Homo sapiens, read-out: growth inhibition % (GI%)
Experimental: as §1, §2

[33] = test system: M14; experiment: as above; type: cell-based; conditions: Homo sapiens, read-out: growth inhibition % (GI%)
Experimental: as §1, §2

[34] = test system: A549/ATCC; experiment: as above; type: cell-based; conditions: Homo sapiens, read-out: growth inhibition % (GI%)
Experimental: as §1, §2

[35] = test system: MOLT-4; experiment: as above; type: cell-based; conditions: Homo sapiens, read-out: growth inhibition % (GI%)
Experimental: as §1, §2

[36] = test system: EKVX; experiment: as above; type: cell-based; conditions: Homo sapiens, read-out: growth inhibition % (GI%)
Experimental: as §1, §2

[37] = test system: RPMI-8226; experiment: as above; type: cell-based; conditions: Homo sapiens, read-out: growth inhibition % (GI%)
Experimental: as §1, §2

[38] = test system: A498; experiment: as above; type: cell-based; conditions: Homo sapiens, read-out: growth inhibition % (GI%)
Experimental: as §1, §2

[39] = test system: HS 578 T; experiment: as above; type: cell-based; conditions: Homo sapiens, read-out: growth inhibition % (GI%)
Experimental: as §1, §2

[40] = test system: BT-5; experiment: as above; type: cell-based; conditions: Homo sapiens, read-out: growth inhibition % (GI%)
Experimental: as §1, §2

Cc1ccc(C(=O)c2ccc(CC(=O)NN=C3C(=O)Nc4ccc(OC(F)(F)F)cc43)n2C)cc1 [Compound 6c, 2–(1-Methyl-5–(4-methylbenzoyl)-1H-pyrrol-2-yl)-N′-(2-oxo-5-(trifluoromethoxy)indolin-3-ylidene)acetohydrazide]
37.1%: inhibition at 10 µM [4]
< 10%: inhibition at 10 µM [1] | inhibition at 10 µM [3] | inhibition at 10 µM [5] | inhibition at 10 µM [7] | inhibition at 10 µM [8] | inhibition at 10 µM [9] | inhibition at 10 µM [10] | inhibition at 10 µM [11] | inhibition at 10 µM [12] | inhibition at 10 µM [13] | inhibition at 10 µM [14] | inhibition at 10 µM [16] | inhibition at 10 µM [17] | inhibition at 10 µM [19] | inhibition at 10 µM [20] | inhibition at 10 µM [21] | inhibition at 10 µM [22] | inhibition at 10 µM [23] | inhibition at 10 µM [24] | inhibition at 10 µM [25] | inhibition at 10 µM [26] | inhibition at 10 µM [27] | inhibition at 10 µM [28] | inhibition at 10 µM [29]
24.3%: inhibition at 10 µM [15]
11.9%: inhibition at 10 µM [2]
157 to 159 °C: melting point
11.1%: inhibition at 10 µM [18]
12.6%: inhibition at 10 µM [6]

Cc1ccc(C(=O)c2ccc(CC(=O)NNC(=O)Nc3c(C)cccc3Cl)n2C)cc1 [Compound 8b, N-(2-Chloro-6-methylphenyl)-2–(2-(1-methyl-5–(4-methylbenzoyl)-1H-pyrrol-2-yl)acetyl)hydrazinecarboxamide]
11.2%: inhibition at 10 µM [24]
12.7%: inhibition at 10 µM [40]
< 10%: inhibition at 10 µM [1] | inhibition at 10 µM [2] | inhibition at 10 µM [3] | inhibition at 10 µM [30] | inhibition at 10 µM [7] | inhibition at 10 µM [31] | inhibition at 10 µM [11] | inhibition at 10 µM [12] | inhibition at 10 µM [13] | inhibition at 10 µM [32] | inhibition at 10 µM [14] | inhibition at 10 µM [16] | inhibition at 10 µM [33] | inhibition at 10 µM [34] | inhibition at 10 µM [17] | inhibition at 10 µM [18] | inhibition at 10 µM [20] | inhibition at 10 µM [21] | inhibition at 10 µM [22] | inhibition at 10 µM [23] | inhibition at 10 µM [35] | inhibition at 10 µM [36] | inhibition at 10 µM [37] | inhibition at 10 µM [27] | inhibition at 10 µM [38] | inhibition at 10 µM [39] | inhibition at 10 µM [28] | inhibition at 10 µM [29]
11.3%: inhibition at 10 µM [6]
16.1%: inhibition at 10 µM [9]
27.9%: inhibition at 10 µM [4]
26.1%: inhibition at 10 µM [15]
240 to 242 °C: melting point
